Results as given in PubChem BioAssay (NCI).
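These data come from cells grown in 96-well plates and exposed to compound for 48 hours at five concentrations. Here, GI50 denotes the concentration required for 50% inhibition of growth. TGI: concentration producing complete growth inhibition.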

Columns and labels:
Test in all cases: DTP human tumour cell line panel, 48 h
SR leukemia = tested on: SR leukemia
HT29 colon = tested on: HT29 colon
M14 melanoma = tested on: M14 melanoma
RPMI-8226 leukemia = tested on: RPMI-8226 leukemia
BT-549 breast = tested on: BT-549 breast
IGROV1 ovarian = tested on: IGROV1 ovarian
CCRF-CEM leukemia = tested on: CCRF-CEM leukemia
MDA-MB-231 breast = tested on: MDA-MB-231 breast
SK-MEL-5 melanoma = tested on: SK-MEL-5 melanoma
SF-268 CNS = tested on: SF-268 CNS
T-47D breast = tested on: T-47D breast
SK-OV-3 ovarian = tested on: SK-OV-3 ovarian
MOLT-4 leukemia = tested on: MOLT-4 leukemia
HL-60(TB) leukemia = tested on: HL-60(TB) leukemia
SF-539 CNS = tested on: SF-539 CNS
MALME-3M melanoma = tested on: MALME-3M melanoma
OVCAR-5 ovarian = tested on: OVCAR-5 ovarian
COLO 205 colon = tested on: COLO 205 colon
SNB-19 CNS = tested on: SNB-19 CNS
DU-145 prostate = tested on: DU-145 prostate
HOP-92 NSCLC = tested on: HOP-92 NSCLC
TK-10 renal = tested on: TK-10 renal
HCT-116 colon = tested on: HCT-116 colon
UACC-62 melanoma = tested on: UACC-62 melanoma
SK-MEL-28 melanoma = tested on: SK-MEL-28 melanoma
UACC-257 melanoma = tested on: UACC-257 melanoma
MDA-MB-435 = tested on: MDA-MB-435
OVCAR-4 ovarian = tested on: OVCAR-4 ovarian
RXF 393 renal = tested on: RXF 393 renal
SW-620 colon = tested on: SW-620 colon
PC-3 prostate = tested on: PC-3 prostate
OVCAR-8 ovarian = tested on: OVCAR-8 ovarian
CAKI-1 renal = tested on: CAKI-1 renal
SK-MEL-2 melanoma = tested on: SK-MEL-2 melanoma
HCT-15 colon = tested on: HCT-15 colon
SF-295 CNS = tested on: SF-295 CNS
HCC-2998 colon = tested on: HCC-2998 colon
SNB-75 CNS = tested on: SNB-75 CNS
NCI-H460 lung = tested on: NCI-H460 lung
NCI-H522 lung = tested on: NCI-H522 lung
A498 renal = tested on: A498 renal
HOP-62 NSCLC = tested on: HOP-62 NSCLC
K-562 leukemia = tested on: K-562 leukemia
HS 578T breast = tested on: HS 578T breast
NCI/ADR-RES ovarian = tested on: NCI/ADR-RES ovarian
UO-31 renal = tested on: UO-31 renal
SN12C renal = tested on: SN12C renal
MCF7 breast = tested on: MCF7 breast
A549 NSCLC = tested on: A549 NSCLC
KM12 colon = tested on: KM12 colon
EKVX NSCLC = tested on: EKVX NSCLC
U251 CNS = tested on: U251 CNS
ACHN renal = tested on: ACHN renal
786-0 renal = tested on: 786-0 renal
LOX IMVI melanoma = tested on: LOX IMVI melanoma
NCI-H226 lung = tested on: NCI-H226 lung

CNC(=O)c1cc(N2CCc3cc(NC(=O)Nc4ccc(N5CCOCC5)c(C(F)(F)F)c4)ccc32)ccn1 was tested, and the GI50 (SR leukemia) was 946 nM, the TGI (SR leukemia) was over 33300 nM and the GI50 (HT29 colon) was 1640 nM. It also gave a TGI (HT29 colon) of over 33300 nM, a GI50 (M14 melanoma) of 1410 nM and a TGI (M14 melanoma) of 25000 nM. It also gave a GI50 (RPMI-8226 leukemia) of 614 nM, a TGI (RPMI-8226 leukemia) of 2500 nM and a GI50 (BT-549 breast) of 1040 nM. It also gave a TGI (BT-549 breast) of 2750 nM, a GI50 (IGROV1 ovarian) of 1430 nM and a TGI (IGROV1 ovarian) of over 33300 nM. The GI50 (CCRF-CEM leukemia) was 1470 nM, the TGI (CCRF-CEM leukemia) was over 33300 nM and the GI50 (MDA-MB-231 breast) was 2470 nM. The TGI (MDA-MB-231 breast) was over 33300 nM, the GI50 (SK-MEL-5 melanoma) was 1100 nM and the TGI (SK-MEL-5 melanoma) was 4720 nM. For the same molecule, the GI50 (SF-268 CNS) was 5700 nM, the TGI (SF-268 CNS) was over 33300 nM and the GI50 (T-47D breast) was 908 nM. For the same molecule, the TGI (T-47D breast) was 9030 nM, the GI50 (SK-OV-3 ovarian) was 7160 nM and the TGI (SK-OV-3 ovarian) was over 33300 nM. It also gave a GI50 (MOLT-4 leukemia) of 1210 nM, a TGI (MOLT-4 leukemia) of 31100 nM and a GI50 (HL-60(TB) leukemia) of 904 nM. The TGI (HL-60(TB) leukemia) was 5500 nM, the GI50 (SF-539 CNS) was 600 nM and the TGI (SF-539 CNS) was over 33300 nM. It also gave a GI50 (MALME-3M melanoma) of 2130 nM, a TGI (MALME-3M melanoma) of over 33300 nM and a GI50 (OVCAR-5 ovarian) of 4950 nM. The TGI (OVCAR-5 ovarian) was over 33300 nM, the GI50 (COLO 205 colon) was 1150 nM and the TGI (COLO 205 colon) was 22000 nM. It also gave a GI50 (SNB-19 CNS) of 3870 nM, a TGI (SNB-19 CNS) of over 33300 nM and a GI50 (DU-145 prostate) of 3040 nM. For the same molecule, the TGI (DU-145 prostate) was over 33300 nM, the GI50 (HOP-92 NSCLC) was 899 nM and the TGI (HOP-92 NSCLC) was 5540 nM. For the same molecule, the GI50 (TK-10 renal) was 11300 nM, the TGI (TK-10 renal) was over 33300 nM and the GI50 (HCT-116 colon) was 1170 nM. It also gave a TGI (HCT-116 colon) of 10500 nM, a GI50 (UACC-62 melanoma) of 776 nM and a TGI (UACC-62 melanoma) of 1970 nM. The GI50 (SK-MEL-28 melanoma) was 3520 nM, the TGI (SK-MEL-28 melanoma) was over 33300 nM and the GI50 (UACC-257 melanoma) was 3230 nM. For the same molecule, the TGI (UACC-257 melanoma) was over 33300 nM, the GI50 (MDA-MB-435) was 2710 nM and the TGI (MDA-MB-435) was over 33300 nM. For the same molecule, the GI50 (OVCAR-4 ovarian) was 1690 nM, the TGI (OVCAR-4 ovarian) was over 33300 nM and the GI50 (RXF 393 renal) was 775 nM. For the same molecule, the TGI (RXF 393 renal) was 2110 nM, the GI50 (SW-620 colon) was 2340 nM and the TGI (SW-620 colon) was over 33300 nM. The GI50 (PC-3 prostate) was 1170 nM, the TGI (PC-3 prostate) was over 33300 nM and the GI50 (OVCAR-8 ovarian) was 1800 nM. For the same molecule, the TGI (OVCAR-8 ovarian) was over 33300 nM, the GI50 (CAKI-1 renal) was 3840 nM and the TGI (CAKI-1 renal) was over 33300 nM. The GI50 (SK-MEL-2 melanoma) was 1130 nM, the TGI (SK-MEL-2 melanoma) was 5730 nM and the GI50 (HCT-15 colon) was 1170 nM. It also gave a TGI (HCT-15 colon) of over 33300 nM, a GI50 (SF-295 CNS) of 689 nM and a TGI (SF-295 CNS) of 2550 nM. For the same molecule, the GI50 (HCC-2998 colon) was 2510 nM, the TGI (HCC-2998 colon) was over 33300 nM and the GI50 (SNB-75 CNS) was 1140 nM. The TGI (SNB-75 CNS) was 13800 nM, the GI50 (NCI-H460 lung) was 1210 nM and the TGI (NCI-H460 lung) was 27300 nM. It also gave a GI50 (NCI-H522 lung) of 1290 nM, a TGI (NCI-H522 lung) of 16300 nM and a GI50 (A498 renal) of 1690 nM. For the same molecule, the TGI (A498 renal) was 25100 nM, the GI50 (HOP-62 NSCLC) was 2560 nM and the TGI (HOP-62 NSCLC) was 25000 nM. For the same molecule, the GI50 (K-562 leukemia) was 996 nM, the TGI (K-562 leukemia) was over 33300 nM and the GI50 (HS 578T breast) was 779 nM. It also gave a TGI (HS 578T breast) of 2940 nM, a GI50 (NCI/ADR-RES ovarian) of 2160 nM and a TGI (NCI/ADR-RES ovarian) of over 33300 nM. For the same molecule, the GI50 (UO-31 renal) was 1210 nM, the TGI (UO-31 renal) was 25100 nM and the GI50 (SN12C renal) was 1260 nM. It also gave a TGI (SN12C renal) of over 33300 nM, a GI50 (MCF7 breast) of 1560 nM and a TGI (MCF7 breast) of over 33300 nM. For the same molecule, the GI50 (A549 NSCLC) was 1620 nM, the TGI (A549 NSCLC) was over 33300 nM and the GI50 (KM12 colon) was 293 nM. It also gave a TGI (KM12 colon) of over 33300 nM, a GI50 (EKVX NSCLC) of 4160 nM and a TGI (EKVX NSCLC) of over 33300 nM. It also gave a GI50 (U251 CNS) of 1320 nM, a TGI (U251 CNS) of over 33300 nM and a GI50 (ACHN renal) of 1900 nM. For the same molecule, the TGI (ACHN renal) was over 33300 nM, the GI50 (786-0 renal) was 1440 nM and the TGI (786-0 renal) was 18900 nM. The GI50 (LOX IMVI melanoma) was 1510 nM, the TGI (LOX IMVI melanoma) was 17900 nM and the GI50 (NCI-H226 lung) was 1330 nM. It also gave a TGI (NCI-H226 lung) of over 33300 nM.
